Source: PubChem BioAssay (NCI)
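Values below derive from 48-hour exposures of cells grown in 96-well plates, with endpoints linearly interpolated between the two concentrations bracketing the appropriate inhibition level. TGI marks complete inhibition of growth.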

Assays:
Test in all cases: NCI anticancer screen, dose series, 48 h
SR leukemia = test system: SR leukemia
OVCAR-8 ovarian = test system: OVCAR-8 ovarian
M14 melanoma = test system: M14 melanoma
HOP-62 NSCLC = test system: HOP-62 NSCLC
DMS 273 small cell lung = test system: DMS 273 small cell lung
M19-MEL melanoma = test system: M19-MEL melanoma
TK-10 renal = test system: TK-10 renal
MALME-3M melanoma = test system: MALME-3M melanoma
UO-31 renal = test system: UO-31 renal
NCI-H522 lung = test system: NCI-H522 lung
RXF 393 renal = test system: RXF 393 renal
HCT-15 colon = test system: HCT-15 colon
SF-268 CNS = test system: SF-268 CNS
HOP-18 NSCLC = test system: HOP-18 NSCLC
HT29 colon = test system: HT29 colon
SK-OV-3 ovarian = test system: SK-OV-3 ovarian
SNB-78 CNS = test system: SNB-78 CNS
UACC-257 melanoma = test system: UACC-257 melanoma
CAKI-1 renal = test system: CAKI-1 renal
IGROV1 ovarian = test system: IGROV1 ovarian
SK-MEL-28 melanoma = test system: SK-MEL-28 melanoma
K-562 leukemia = test system: K-562 leukemia
OVCAR-3 ovarian = test system: OVCAR-3 ovarian
OVCAR-5 ovarian = test system: OVCAR-5 ovarian
UACC-62 melanoma = test system: UACC-62 melanoma
MOLT-4 leukemia = test system: MOLT-4 leukemia
KM20L2 colon = test system: KM20L2 colon
ACHN renal = test system: ACHN renal
HOP-92 NSCLC = test system: HOP-92 NSCLC
RXF-631 renal = test system: RXF-631 renal
786-0 renal = test system: 786-0 renal
SN12C renal = test system: SN12C renal
NCI-H460 lung = test system: NCI-H460 lung
HL-60(TB) leukemia = test system: HL-60(TB) leukemia
RPMI-8226 leukemia = test system: RPMI-8226 leukemia
SK-MEL-5 melanoma = test system: SK-MEL-5 melanoma
A498 renal = test system: A498 renal
SNB-19 CNS = test system: SNB-19 CNS
U251 CNS = test system: U251 CNS
NCI-H226 lung = test system: NCI-H226 lung
KM12 colon = test system: KM12 colon
COLO 205 colon = test system: COLO 205 colon
SF-295 CNS = test system: SF-295 CNS
CCRF-CEM leukemia = test system: CCRF-CEM leukemia
LOX IMVI melanoma = test system: LOX IMVI melanoma
EKVX NSCLC = test system: EKVX NSCLC
DLD-1 colon = test system: DLD-1 colon
LXFL 529 NSCLC = test system: LXFL 529 NSCLC
SW-620 colon = test system: SW-620 colon
A549 NSCLC = test system: A549 NSCLC
SF-539 CNS = test system: SF-539 CNS
NCI-H23 lung = test system: NCI-H23 lung
SK-MEL-2 melanoma = test system: SK-MEL-2 melanoma
HCT-116 colon = test system: HCT-116 colon
DMS 114 small cell lung = test system: DMS 114 small cell lung
OVCAR-4 ovarian = test system: OVCAR-4 ovarian
HCC-2998 colon = test system: HCC-2998 colon
XF 498 CNS = test system: XF 498 CNS
SNB-75 CNS = test system: SNB-75 CNS

CCOc1cc2c(cc1OC)c[n+](C)c1c3cc(OC)c(OC)cc3ccc21
TGI (SR leukemia): > 100 µM | TGI (OVCAR-8 ovarian): > 100 µM | TGI (M14 melanoma): > 100 µM | TGI (HOP-62 NSCLC): > 100 µM | TGI (DMS 273 small cell lung): > 100 µM | TGI (M19-MEL melanoma): > 100 µM | TGI (TK-10 renal): > 100 µM | TGI (MALME-3M melanoma): > 100 µM | TGI (UO-31 renal): > 100 µM | TGI (NCI-H522 lung): > 100 µM | TGI (RXF 393 renal): 73.5 µM | TGI (HCT-15 colon): > 100 µM | TGI (SF-268 CNS): > 100 µM | TGI (HOP-18 NSCLC): > 80.1 µM | TGI (HT29 colon): > 100 µM | TGI (SK-OV-3 ovarian): > 100 µM | TGI (SNB-78 CNS): > 89.9 µM | TGI (UACC-257 melanoma): > 100 µM | TGI (CAKI-1 renal): > 100 µM | TGI (IGROV1 ovarian): > 100 µM | TGI (SK-MEL-28 melanoma): > 100 µM | TGI (K-562 leukemia): > 49 µM | TGI (OVCAR-3 ovarian): > 100 µM | TGI (OVCAR-5 ovarian): > 85.2 µM | TGI (UACC-62 melanoma): > 100 µM | TGI (MOLT-4 leukemia): > 100 µM | TGI (KM20L2 colon): > 100 µM | TGI (ACHN renal): > 100 µM | TGI (HOP-92 NSCLC): > 60.3 µM | TGI (RXF-631 renal): 44.9 µM | TGI (786-0 renal): > 56.6 µM | TGI (SN12C renal): > 100 µM | TGI (NCI-H460 lung): > 100 µM | TGI (HL-60(TB) leukemia): 32.2 µM | TGI (RPMI-8226 leukemia): > 100 µM | TGI (SK-MEL-5 melanoma): > 100 µM | TGI (A498 renal): > 100 µM | TGI (SNB-19 CNS): > 100 µM | TGI (U251 CNS): > 48.2 µM | TGI (NCI-H226 lung): 99 µM | TGI (KM12 colon): > 100 µM | TGI (COLO 205 colon): > 100 µM | TGI (SF-295 CNS): > 100 µM | TGI (CCRF-CEM leukemia): > 65.8 µM | TGI (LOX IMVI melanoma): > 81.3 µM | TGI (EKVX NSCLC): > 100 µM | TGI (DLD-1 colon): > 100 µM | TGI (LXFL 529 NSCLC): > 100 µM | TGI (SW-620 colon): > 93.5 µM | TGI (A549 NSCLC): > 100 µM | TGI (SF-539 CNS): > 100 µM | TGI (NCI-H23 lung): > 100 µM | TGI (SK-MEL-2 melanoma): > 80.6 µM | TGI (HCT-116 colon): > 100 µM | TGI (DMS 114 small cell lung): 51.3 µM | TGI (OVCAR-4 ovarian): > 100 µM | TGI (HCC-2998 colon): > 100 µM

O=C(c1ccccc1)[C@H]1Nc2ccc(Cl)cc2[C@H]2c3ccccc3O[C@H]21
TGI (SR leukemia): 66.6 µM | TGI (OVCAR-8 ovarian): 34.6 µM | TGI (M14 melanoma): 30.1 µM | TGI (HOP-62 NSCLC): 32.5 µM | TGI (DMS 273 small cell lung): 38.7 µM | TGI (M19-MEL melanoma): 39.5 µM | TGI (TK-10 renal): 30.4 µM | TGI (XF 498 CNS): 28.2 µM | TGI (MALME-3M melanoma): 31.7 µM | TGI (SNB-75 CNS): 25.6 µM | TGI (UO-31 renal): 18.2 µM | TGI (NCI-H522 lung): 33.8 µM | TGI (RXF 393 renal): 22.4 µM | TGI (HCT-15 colon): 28.4 µM | TGI (SF-268 CNS): 33.9 µM | TGI (HOP-18 NSCLC): 24 µM | TGI (HT29 colon): 26.1 µM | TGI (SNB-78 CNS): 32.3 µM | TGI (UACC-257 melanoma): 8.48 µM | TGI (CAKI-1 renal): 29.1 µM | TGI (IGROV1 ovarian): 38.2 µM | TGI (SK-MEL-28 melanoma): 25.8 µM | TGI (K-562 leukemia): 36.7 µM | TGI (OVCAR-3 ovarian): 25.7 µM | TGI (OVCAR-5 ovarian): 29.5 µM | TGI (UACC-62 melanoma): 28.6 µM | TGI (MOLT-4 leukemia): 37.7 µM | TGI (KM20L2 colon): 28.3 µM | TGI (ACHN renal): 28.7 µM | TGI (786-0 renal): 30.6 µM | TGI (SN12C renal): 29.1 µM | TGI (NCI-H460 lung): 34.3 µM | TGI (RPMI-8226 leukemia): > 100 µM | TGI (SK-MEL-5 melanoma): 27.5 µM | TGI (A498 renal): 24.5 µM | TGI (SNB-19 CNS): 29.3 µM | TGI (U251 CNS): 29.2 µM | TGI (KM12 colon): 30.2 µM | TGI (COLO 205 colon): 37.4 µM | TGI (SF-295 CNS): 28.9 µM | TGI (LOX IMVI melanoma): 37.2 µM | TGI (EKVX NSCLC): 28.6 µM | TGI (DLD-1 colon): 30 µM | TGI (LXFL 529 NSCLC): 28.5 µM | TGI (SW-620 colon): 31.2 µM | TGI (A549 NSCLC): 30.2 µM | TGI (SF-539 CNS): 28.7 µM | TGI (NCI-H23 lung): 28.1 µM | TGI (SK-MEL-2 melanoma): 27.3 µM | TGI (HCT-116 colon): 34.3 µM | TGI (DMS 114 small cell lung): 40.1 µM | TGI (OVCAR-4 ovarian): 32.3 µM | TGI (HCC-2998 colon): 31.5 µM

O=[N+]([O-])c1ccc(Cl)c(C2CC(c3cccc4ccccc34)=Nc3ccccc3S2=O)c1 (configuration not stated)
TGI (SR leukemia): 93.1 µM | TGI (OVCAR-8 ovarian): 20.8 µM | TGI (M14 melanoma): 59.7 µM | TGI (HOP-62 NSCLC): > 62.6 µM | TGI (DMS 273 small cell lung): > 100 µM | TGI (M19-MEL melanoma): > 62.7 µM | TGI (TK-10 renal): 98.2 µM | TGI (MALME-3M melanoma): 42.5 µM | TGI (SNB-75 CNS): > 100 µM | TGI (UO-31 renal): > 46.7 µM | TGI (RXF 393 renal): 21.1 µM | TGI (HCT-15 colon): > 100 µM | TGI (SF-268 CNS): > 100 µM | TGI (HOP-18 NSCLC): > 100 µM | TGI (HT29 colon): 37.9 µM | TGI (SK-OV-3 ovarian): > 100 µM | TGI (SNB-78 CNS): 38.9 µM | TGI (UACC-257 melanoma): > 86.4 µM | TGI (CAKI-1 renal): > 69.8 µM | TGI (IGROV1 ovarian): > 85.1 µM | TGI (SK-MEL-28 melanoma): 42.8 µM | TGI (K-562 leukemia): 37 µM | TGI (OVCAR-3 ovarian): 83.4 µM | TGI (OVCAR-5 ovarian): 76.1 µM | TGI (UACC-62 melanoma): 40.8 µM | TGI (MOLT-4 leukemia): 62.8 µM | TGI (KM20L2 colon): > 63.6 µM | TGI (ACHN renal): 52.9 µM | TGI (HOP-92 NSCLC): 22.8 µM | TGI (RXF-631 renal): > 100 µM | TGI (786-0 renal): 28.5 µM | TGI (SN12C renal): > 60.4 µM | TGI (NCI-H460 lung): > 76.4 µM | TGI (HL-60(TB) leukemia): 34.1 µM | TGI (RPMI-8226 leukemia): 7.7 µM | TGI (SK-MEL-5 melanoma): 40 µM | TGI (A498 renal): 64.7 µM | TGI (SNB-19 CNS): > 53.8 µM | TGI (U251 CNS): 20.2 µM | TGI (NCI-H226 lung): > 54.5 µM | TGI (KM12 colon): > 100 µM | TGI (COLO 205 colon): 97.7 µM | TGI (SF-295 CNS): 61 µM | TGI (CCRF-CEM leukemia): 11.1 µM | TGI (LOX IMVI melanoma): > 31.6 µM | TGI (EKVX NSCLC): > 100 µM | TGI (DLD-1 colon): 26.1 µM | TGI (LXFL 529 NSCLC): 52.8 µM | TGI (SW-620 colon): 33.5 µM | TGI (A549 NSCLC): > 100 µM | TGI (SF-539 CNS): 19.1 µM | TGI (NCI-H23 lung): 17.4 µM | TGI (SK-MEL-2 melanoma): 37.4 µM | TGI (HCT-116 colon): 35.1 µM | TGI (DMS 114 small cell lung): 41.1 µM | TGI (OVCAR-4 ovarian): > 84.2 µM | TGI (HCC-2998 colon): > 50.3 µM
